Measured values from US20180282323A1, “Mesoionic imidazole derivatives as insecticides” (BAYER CROPSCIENCE AKTIENGESELLSCHAFT, priority 2015, published 2018).
Read-outs that look alike come from different tables or passages of the source.

What was measured:
[1] = system: Myzus persicae; assay: Myzus persicae spray test (Chinese cabbage leaf discs); assay type: in vivo; settings: application rate 500 g/ha, after 6 days
Description: Myzus persicae—Spray Test Solvent: 78 parts by weight of acetone • • 1.5 parts by weight of dimethylformamide Emulsifier: alkylaryl polyglycol ether
To produce a suitable active ingredient formulation, 1 part by weight of active ingredient is dissolved with the stated parts by weight of solvent and made up with water containing an emulsifier concentration of 1000 ppm until the desired concentration is attained. To produce further test concentrations, the formulation is diluted with emulsifier-containing water.
Discs of Chinese cabbage leaves (Brassica pekinensis) infested by all stages of the green peach aphid (Myzus persicae) are sprayed with an active ingredient formulation of the desired concentration.
After 6 days, the efficacy in % is determined. 100% means that all the aphids have been killed; 0% means that no aphids have been killed.

[2] = system: Myzus persicae; assay: Myzus persicae oral test; assay type: in vivo; settings: application rate 20 ppm, oral uptake through parafilm, after 5 days; for pest or weed control at 20 ppm: Myzus persicae, 120 h, read-out: efficacy
Description: Myzus persicae—Oral Test Solvent: 100 parts by weight of acetone
To produce an appropriate active ingredient formulation, 1 part by weight of active ingredient is dissolved with the stated parts by weight of solvent and made up with water until the desired concentration is attained.
50 μl of the active ingredient formulation are transferred into microtitre plates and made up to a final volume of 200 μl with 150 μl of IPL41 insect medium (33%+15% sugar). Subsequently, the plates are sealed with parafilm, which a mixed population of green peach aphids (Myzus persicae) within a second microtitre plate is able to puncture and imbibe the solution through it.
After 5 days, the efficacy in % is determined. 100% means that all the aphids have been killed; 0% means that no aphids have been killed.

[3] = log P by HPLC on reversed-phase column (EEC directive 79/831 Annex V.A8); assay type: physicochemical; settings: for log p: HPLC on reversed-phase column (footnote a); for log p a): HPLC on reversed-phase column
Summary of the method: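 Determined per EEC directive 79/831 Annex V.A8 by HPLC on a reversed-phase C18 column at 43° C.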

log p [3]	log p a) [3]	Compound	efficacy [1] [%]	efficacy [2] [%]	other results
2.09		O=C(Cn1cc(Cl)cn1)c1c([O-])n(Cc2cnc(Cl)s2)c2cccc[n+]12 [Example I-1-010]	90	100	
1.68		N#Cc1cnn(CC(=O)c2c([O-])n(Cc3cnc(Cl)s3)c3cccc[n+]23)c1 [Example I-1-015]	90	100	
		CC(C)OCC(=O)c1c([O-])n(Cc2cnc(Cl)s2)c2cccc[n+]12 [Example I-1-026, 1-[(2-chloro-1,3-thiazol-5-yl)methyl]-3-(isopropoxyacetyl)-1H-imidazo[1,2-a]pyridin-4-ium-2-olate]	100		pest or weed control at 20 ppm [2]: 100%; chromatographic logP [3]: 1.73; chromatographic logP ([3]; pH 2.7): 1.8
		CC(=O)c1c([O-])n(Cc2cnc(Cl)s2)c2cccc[n+]12 [Example I-1-043, 3-Acetyl-1-[(2-chloro-1,3-thiazol-5-yl)methyl]-1H-imidazo[1,2-a]pyridin-4-ium-2-olate]	100		pest or weed control at 20 ppm [2]: 100%; chromatographic logP [3]: 1.29; chromatographic logP ([3]; pH 2.7): 1.29
1.21		CC(=O)Nc1ccn(CC(=O)c2c([O-])n(Cc3cnc(Cl)s3)c3cccc[n+]23)n1 [Example I-1-056]	90	90	
1.08		CCCOCC(=O)c1c([O-])n(Cc2cncnc2)c2cccc[n+]12 [Example I-1-061]	100	100	
1.41		O=C(Cn1nccn1)c1c([O-])n(Cc2cnc(Cl)s2)c2cccc[n+]12 [Example I-1-068]	100	100	
0.59		CCOCC(=O)c1c([O-])n(Cc2cncnc2)c2cccc[n+]12 [Example I-1-072]	100	100	
1.18		CC(=O)N(C)CC(=O)c1c([O-])n(Cc2cnc(Cl)s2)c2cccc[n+]12 [Example I-1-076]	100	100	
		COC(=O)c1c([O-])n(Cc2cnc(Cl)s2)c2cccc[n+]12 [Example I-1-085, 1-[(2-Chloro-1,3-thiazol-5-yl)methyl]-3-(methoxycarbonyl)-1H-imidazo[1,2-a]pyridin-4-ium-2-olate]	90		chromatographic logP [3]: 1.23; chromatographic logP ([3]; pH 2.7): 1.23
1.53		Cn1nccc1OCC(=O)c1c([O-])n(Cc2cnc(Cl)s2)c2cccc[n+]12 [Example I-1-086]	100	100	
1.84		Cc1ccn(CC(=O)c2c([O-])n(Cc3cnc(Cl)s3)c3c(C)ccc[n+]23)n1 [Example I-1-092]	90	100	
	2.62	COc1ccc(NC(=O)c2c([O-])n(Cc3cnc(Cl)s3)c3cccc[n+]23)cc1 [Example I-1-236]		100	
	1.07	CCNC(=O)c1c([O-])n(Cc2cnc(C)cn2)c2cccc[n+]12 [Example I-1-244]		90	
	0.76	CNC(=O)c1c([O-])n(Cc2cnc(C)cn2)c2cccc[n+]12 [Example I-1-245]		90	
	1.69	Cc1ccc[n+]2c(C(=O)Cn3cccn3)c([O-])n(Cc3cnc(Cl)s3)c12 [Example I-1-251]		100	
	1.75	Cc1cnc(Cn2c([O-])c(C(=O)Nc3c(F)cccc3F)[n+]3ccccc23)cn1 [Example I-1-269]		100	
	1.51	CCNC(=O)c1c([O-])n(Cc2cnc(Cl)cn2)c2cccc[n+]12 [Example I-1-278]		100	
	2.95	O=C(Nc1ccccc1F)c1c([O-])n(Cc2cnc(Cl)s2)c2cccc[n+]12 [Example I-1-286]		100	
	1.86	CC(c1cnc(Cl)s1)n1c([O-])c(C(=O)NC2(C#N)CC2)[n+]2ccccc12 (stereo not drawn) [Example I-1-289]		100	
	2.77	Cc1ccc[n+]2c(C(=O)COC3CCCCC3)c([O-])n(Cc3cnc(Cl)s3)c12 [Example I-1-294]		90	
	2.45	Cc1ccc[n+]2c(C(=O)COC3CCCC3)c([O-])n(Cc3cnc(Cl)s3)c12 [Example I-1-302]		100	
	1.3	C#Cc1cccnc1NC(=O)c1c([O-])n(Cc2cnc(Cl)s2)c2cccc[n+]12 [Example I-1-303]	90		
	3.23	O=C(Nc1cc(F)ccc1F)c1c([O-])n(Cc2cnc(Cl)s2)c2cccc[n+]12 [Example I-1-306]		100	
	2.2	N#Cc1cccc(F)c1NC(=O)c1c([O-])n(Cc2cnc(Cl)s2)c2cccc[n+]12 [Example I-1-307]	90		
		COC(=O)c1c([O-])n(Cc2ccc(Cl)nc2)c2nccc[n+]12 [Example I-4-001, 1-[(6-Chloropyridin-3-yl)methyl]-3-(methoxycarbonyl)-1H-imidazo[1,2-a]pyrimidin-4-ium-2-olate]			pest or weed control at 20 ppm [2]: 100%; chromatographic logP [3]: 1.15; chromatographic logP ([3]; pH 2.7): 1.15
		O=C(CCl)c1c([O-])n(Cc2ccc(Cl)nc2)c2scc[n+]12 [Example I-5-001, 5-(Chloroacetyl)-7-[(6-chloropyridin-3-yl)methyl]-7H-imidazo[2,1-b][1,3]thiazol-4-ium-6-olate]			pest or weed control at 20 ppm [2]: 100%; chromatographic logP [3]: 1.33; chromatographic logP ([3]; pH 2.7): 1.33
		O=C(CCl)c1c([O-])n(Cc2cnc(Cl)s2)c2scc[n+]12 [Example I-5-002]		100	log p^a) ([3]; Table 3; HPLC reversed-phase C18, 43° C.; footnote a) acidic range pH 2.7): 1.46

Compound	log p [3]	log p a) [3]	efficacy [1] [%]	efficacy [2] [%]	other results
CSCC(=O)c1c([O-])n(Cc2ccc(Cl)nc2)c2cccc[n+]12 [Example I-1-005]	1.62		90	100	
C[S+]([O-])CC(=O)c1c([O-])n(Cc2ccc(Cl)nc2)c2cccc[n+]12 (stereo not drawn) [Example I-1-022]	0.91		100	100	
COCC(=O)c1c([O-])n(Cc2cncnc2)c2cccc[n+]12 [Example I-1-023]	0.4		100	100	
CCC(=O)N(CC)CC(=O)c1c([O-])n(Cc2ccc(Cl)nc2)c2cccc[n+]12 [Example I-1-070]	1.64		100	100	
Cc1cccc2n(Cc3cnc(Cl)s3)c([O-])c(C(=O)CCl)[n+]12 [Example I-1-080]	1.81		100		
Cc1ccc[n+]2c(C(=O)CCl)c([O-])n(Cc3cnc(Cl)s3)c12 [Example I-1-081]	1.98		100	100	
COC(=O)c1c([O-])n(Cc2ccc(Cl)nc2)c2cccc[n+]12 [Example I-1-101]	1.18		90	100	
COc1ccc(NC(=O)c2c([O-])n(C(C)c3ccc(Cl)nc3)c3cccc[n+]23)cc1 (stereo not drawn) [Example I-1-237]		2.66		90	
CC(c1ccc(Cl)nc1)n1c([O-])c(C(=O)NCC(F)(F)F)[n+]2ccccc12 (stereo not drawn) [Example I-1-241]		2.2		100	
CCCNC(=O)c1c([O-])n(C(C)c2ccc(Cl)nc2)c2cccc[n+]12 (stereo not drawn) [Example I-1-249]		2.02		100	
CC(c1ccc(Cl)nc1)n1c([O-])c(C(=O)NCC2CC2)[n+]2ccccc12 (stereo not drawn) [Example I-1-250]		2.12		100	
Cc1ccc[n+]2c(C(=O)Nc3ncccn3)c([O-])n(Cc3ccc(Cl)nc3)c12 [Example I-1-265]		1.51		90	
CC(c1ccc(Cl)nc1)n1c([O-])c(C(=O)NC2(C#N)CC2)[n+]2ccccc12 (stereo not drawn) [Example I-1-271]		1.69		100	
CC(c1ccc(Cl)nc1)n1c([O-])c(C(=O)Nc2c(F)cccc2F)[n+]2ccccc12 (stereo not drawn) [Example I-1-272]		2.46		100	
COc1cccc(NC(=O)c2c([O-])n(Cc3ccc(Cl)nc3)c3cccc[n+]23)c1 [Example I-1-299]		2.55		100	
O=C(NCC(F)(F)F)c1c([O-])n(Cc2ccc(Cl)nc2)c2cccc[n+]12 [Example I-1-312]		1.98		100	
O=C(Nc1ncccc1F)c1c([O-])n(Cc2ccc(Cl)nc2)c2cccc[n+]12 [Example I-1-317]		1.49		100	
COc1ccccc1NC(=O)c1c([O-])n(Cc2ccc(Cl)nc2)c2cccc[n+]12 [Example I-1-326]		2.55		100	
